Experimental data from the supplement of paper PMC11061612.

Legend:
Assay in all cases: combination Emax (second highest fraction inhibited in the dose matrix, 72 h); higher = more inhibition; extreme values may be limits of the assay
[1] = system: A549 (Lung Adenocarcinoma)
How it was run: (§1)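 Cell lines grown in DMEM/F12 or RPMI with 10% FBS were plated in 1536-well plates and held 24 hours at 37°C, 5% CO2 before 72 hours of exposure to two-drug dose matrices, with DMSO typically at 0.2%. CellTiter-Glo 2.0 luminescence gave viability, which was converted to inhibition. Vehicle wells were set to 0 and blank wells to 1. Combination Emax is the second-highest inhibition in the matrix, and Bliss excess is the observed combination effect minus the expected EA + EB − EA·EB, where EA and EB are the single-agent effects.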

Hs-445 (Non-Cancerous) = system: Hs-445 (Non-Cancerous)
How it was run: as §1

LN-405 (Glioblastoma) = system: LN-405 (Glioblastoma)
How it was run: as §1

[2] = system: MDST8 (Colorectal Carcinoma)
How it was run: as §1

[3] = system: JSC-1 (B-Cell Non-Hodgkin's Lymphoma)
How it was run: as §1

[4] = system: KARPAS-422 (B-Cell Non-Hodgkin's Lymphoma)
How it was run: as §1

[5] = system: TT2609-C02 (Thyroid Gland Carcinoma)
How it was run: as §1

GI-ME-N (Neuroblastoma) = system: GI-ME-N (Neuroblastoma)
How it was run: as §1

[6] = system: CAL-29 (Bladder Carcinoma)
How it was run: as §1

[7] = system: NCI-H1581 (Non-Small Cell Lung Carcinoma)
How it was run: as §1

[8] = system: BICR22 (Oral Cavity Carcinoma)
How it was run: as §1

PA-1 (Ovarian Carcinoma) = system: PA-1 (Ovarian Carcinoma)
How it was run: as §1

IGR-37 (Melanoma) = system: IGR-37 (Melanoma)
How it was run: as §1

[9] = system: COR-L311 (Small Cell Lung Carcinoma)
How it was run: as §1

[10] = system: CCK-81 (Colorectal Carcinoma)
How it was run: as §1

A498 (Kidney Carcinoma) = system: A498 (Kidney Carcinoma)
How it was run: as §1

U-2-OS (Osteosarcoma) = system: U-2-OS (Osteosarcoma)
How it was run: as §1

[11] = system: CAPAN-2 (Pancreatic Carcinoma)
How it was run: as §1

[12] = system: PANC-10-05 (Pancreatic Carcinoma)
How it was run: as §1

8-MG-BA (Glioblastoma) = system: 8-MG-BA (Glioblastoma)
How it was run: as §1

SMILES	combination Emax [1]	combination Emax (Hs-445 (Non-Cancerous))	combination Emax (LN-405 (Glioblastoma))	combination Emax [2]	combination Emax [3]	combination Emax [4]	combination Emax [5]	combination Emax (GI-ME-N (Neuroblastoma))	combination Emax [6]	combination Emax [7]	combination Emax [8]	combination Emax (PA-1 (Ovarian Carcinoma))	combination Emax (IGR-37 (Melanoma))	combination Emax [9]	combination Emax [10]	combination Emax (A498 (Kidney Carcinoma))	combination Emax (U-2-OS (Osteosarcoma))	combination Emax [11]	combination Emax [12]	combination Emax (8-MG-BA (Glioblastoma))
CC1(C)CCC(CN2CCN(c3ccc(C(=O)NS(=O)(=O)c4ccc(NCC5CCOCC5)c([N+](=O)[O-])c4)c(Oc4cnc5[nH]ccc5c4)c3)CC2)=C(c2ccc(Cl)cc2)C1 [Venetoclax] + COc1cc(Nc2ncc3c(n2)-c2ccc(Cl)cc2C(c2c(F)cccc2OC)=NC3)ccc1C(=O)O [Alisertib] (first compound max 1 µM, 7x7, partner max 10 µM)	0.721	0.857	0.513	0.329	0.377	0.858	0.426	0.327	0.364	0.698	0.501	0.927	0.486	0.842	0.318	0.386	0.4	0.244	0.302	0.447
CC1(C)CCC(CN2CCN(c3ccc(C(=O)NS(=O)(=O)c4ccc(NCC5CCOCC5)c([N+](=O)[O-])c4)c(Oc4cnc5[nH]ccc5c4)c3)CC2)=C(c2ccc(Cl)cc2)C1 [Venetoclax] + C[C@@H]1COCCN1C2=NC(=NC(=C2)C3(CC3)[S@](=N)(=O)C)C4=C5C=CNC5=NC=C4 [AZD6738] (first compound max 1 µM, 7x7, partner max 10 µM)	0.716	0.99	0.483	0.777	0.882	0.956	0.317	0.459	0.689	0.451	0.768	0.827	0.793	0.694	0.846	0.514	0.586	0.319	0.53	0.792
CC1(C)CCC(CN2CCN(c3ccc(C(=O)NS(=O)(=O)c4ccc(NCC5CCOCC5)c([N+](=O)[O-])c4)c(Oc4cnc5[nH]ccc5c4)c3)CC2)=C(c2ccc(Cl)cc2)C1 [Venetoclax] + C[C@@H](Nc1cc(F)cc(F)c1)c1cc(C(=O)N(C)C)cc2c(=O)cc(N3CCOCC3)oc12 [AZD8186] (first compound max 1 µM, 7x7, partner max 3 µM)	0.471	0.612	0.335	0.0955	0.0196	0.98	0.162	0.165	0.113	0.182	0.15	0.682	0.46	0.768	0.0792	0.632	0.139	0.194	0.244	0.133
CC1(C)CCC(CN2CCN(c3ccc(C(=O)NS(=O)(=O)c4ccc(NCC5CCOCC5)c([N+](=O)[O-])c4)c(Oc4cnc5[nH]ccc5c4)c3)CC2)=C(c2ccc(Cl)cc2)C1 [Venetoclax] + Cc1cc2ncnn2cc1Nc1ncc2c(n1)n(C1CCOCC1)c(=O)n2C [AZD7648] (first compound max 1 µM, 7x7, partner max 10 µM)	0.436	0.405	0.373	0.245	0.205	0.897	0.341	0.186	0.209	0.222	0.291	0.473	0.556	0.671	0.173	0.381	0.206	0.219	0.332	0.133
CC1(C)CCC(CN2CCN(c3ccc(C(=O)NS(=O)(=O)c4ccc(NCC5CCOCC5)c([N+](=O)[O-])c4)c(Oc4cnc5[nH]ccc5c4)c3)CC2)=C(c2ccc(Cl)cc2)C1 [Venetoclax] + Cn1cnc2c(F)c(Nc3ccc(Br)cc3Cl)c(C(=O)NOCCO)cc21 [Selumetinib] (first compound max 1 µM, 7x7, partner max 3 µM)	0.611	0.395	0.182	0.646	0.271	0.793	0.55	0.24	0.245	0.32	0.141	0.318	0.879	0.635	0.369	0.433	0.169	0.364	0.398	0.124
